# Experimental data as given in patent US11959104B2, “Methods of differentiating stem cell-derived ectodermal lineage precursors” (MEMORIAL SLOAN-KETTERING CANCER CENTER, priority 2016, dated 2024).
# “Also recorded” adds a separate entry of the source. Where two headings read alike, the source gives them in different places. Ends that are not written are not given here.
# Columns and labels:
# hPSCs = assay: Toxicity of KSR-protocol small molecule concentrations in E6 differentiation; type: cell-based, human; conditions: original KSR-protocol concentration used in E6
# Text: To transition these protocols into the more defined E6 media, we adapted hPSCs in E8 for multiple passages and simply replaced the KSR-based medium with an E6 based differentiation while maintaining factors and concentrations as described previously to trigger the 4 major ectodermal lineages (FIG. 9A). […] After determining an optimal non-toxic concentration for each of the small molecules we observed that NE formation under E6 conditions was equivalent to that obtained with KSR-based conditions. […] We compared the efficiency of generating PAX6 positive cells using either no small molecules, using dSMADi or using the single TGFβ inhibitor SB431542 (SB). We found robust PAX6 expression in the absence of dSMADi (˜40% of total cells on day 12 post induction). However, the percentage of cells expressing PAX6 was further improved upon addition of SB or dSMADi to nearly 90% and 80%, respectively (FIGS. 1E and 9B).
# [1] = tested on: hPSC-derived pituitary cells; assay: Stimulation of hormone release in vitro (ELISA); type: cell-based, human; conditions: day 30 of differentiation
# Description: To stimulate hormone release in vitro, cells were differentiated in 24 well plates as described above. On day 30 of differentiation cells were washed once with PBS and 250 μl of fresh medium containing either the solvent or the stimulant were added to each well. After 12 h the supernatant was removed and centrifuged for 5 min at 2000 g to pellet debris. Supernatant was transferred into fresh reaction tubes, flash frozen and stored at −80° C. until ELISA measurements. Stimulants used were: CRF (Tocris, 1 μM), Stressin I (Tocris, 2 μM), Ghrelin (Tocris, 1 μM), Somatocrinin (Accurate Chemical, 1 μg/ml), Nafarelin (Tocris, 1 μM) and Urocortin (Tocris, 500 nM).
# Hormone concentration in the supernatant of cells or in animal serum was analyzed using ELISA measurements. Hormone concentration in the cell culture supernatant was assessed using traditional single hormone ELISA Kits according to the manufactures manual. ACTH (Calbiotech, detects rat and human ACTH), hGH (R&D Systems, human specific), FSH (Calbiotech, FSH (lumELISA, human specific) and corticosterone (Abcam). Plates were read using an EnSpire Multimode plate reader (PerkinElmer). Hormone concentration in in vivo samples was analyzed using either traditional ELISA (for ACTH only, serum diluted 1:2) or species specific (human or rat) Milliplex multiplex ELISA using Luminex technology (Millipore). Magnetic bead-based sandwich immunoassay was performed according to the manufactures manual. 25 μl of undiluted serum samples in duplicate wells were analyzed by Luminex FlexMap 3D (Luminex Corp, Austin, TX). Cytokine concentrations were determined by Luminex Xponent 4.1 and EMD-Millipore Milliplex Analyst v5.1 using 5-p log analysis.
# [2] = tested on: hPSC-derived cranial placode; assay: Pituitary placode induction, day 15 (qRT-PCR, immunofluorescence); type: cell-based; conditions: for induction of anterior pituitary genes / lineage markers: from day 4, day 15 analysis
# Description: For pituitary differentiation cells were plated at 250 000 cells/cm^2 on VTN-N coated dishes (differentiation works best in 24 well plates) in E8+10 μM Y-27632. After 24 h (day 0) medium was changed to E6 supplemented with 10 μM SB431542 and 5 ng/ml BMP4 (R&D Systems). Medium was changed every day. On day 3 BMP4 was removed from the medium and cells were cultured for 1 day in E6+10 μM SB431542. For the standard differentiation conditions, on day 4 E6 was supplemented with 10 μM SB431542, 200 ng/ml SHH (R&D Systems, C25II), 100 ng/ml FGF8b (R&D Systems) and 50 ng/ml FGF10 (Peprotech Inc.). For some experiments SHH was replaced by 1 μM purmorphamine (Stemgent) or 1 μM SAG (Stemcell Technologies). From now on medium volume was doubled and cells were feed every other day until day 15. On day 15 of differentiation SIX1 H2B::GFP^+ cells were sorted using a BDFACS Aria III cell sorter. Purified cells were then plated as droplets (50 000 cells/10 μl drop) in E6 supplemented with 10 Y-27632, 200 ng/ml SHH, 100 ng/ml FGF8b and 50 ng/ml FGF10 on polyornithine/laminin/fibronectin-coated plates. After 24 h medium was changed to E6 containing SHH, FGF8 and FGF10 until day 30. Medium was changed every other day. For some experiments pituitary induction was started slightly later (day 6) or cells were differentiated in medium conditioned by hypothalamic neuroectoderm from either day 4 or day 6 on. For the co-culture experiment SIX1 H2B::GFP positive cells were sorted on day 6 and 50 000 cells/cm^2 were plated directly on hypothalamic neuroectodermal cells in E6 only supplemented with 10 SB431542.
# Total RNA was extracted from at least 3 independent experiments using the TRIzol (Fisher Scientific) reagent in combination with Phase-lock tubes (5Prime) according to the manufactures protocol. 1 μg of total RNA was reverse transcribed into cDNA using iScript (BioRad). For quantitative RT PCR we used the SSoFast EvaGreen Mix (BioRad) in combination with QuantiTect primer assays (Qiagen) on a BioRad CFX96 Thermal Cycler. All reactions were run according to the manufacturer's protocol. Results are calculated using the ΔΔCt method (Livak and Schmittgen, 2001).
# After washing the cells once with PBS, cells were fixed with 4% (v/v) paraformaldehyde for 20 min, washed twice with PBS, permeabilized using 0.1% (v/v) Triton X-100 in PBS, Cells were blocked with 10% (v/v) FCS in PBS for 1-5 h at room temperature. Cells were incubated with primary antibodies diluted in 2% FCS (v/v) in PBS at 4° C. overnight. A list of the primary antibodies used in this study is provided as FIG. 28. […] After and additional 2 washing steps, fluorescence images of the cells were taken using an Olympus IX71 inverted microscope equipped with a Hamamatsu ORCA CCD camera.
# [3] = tested on: Six1::H2B-GFP reporter line; assay: LOPAC small molecule screen and validation for enhanced CP induction
# Description: All differentiations starting from E8 were dissociated into single cells using EDTA and replated at high density in E8 with the ROCK inhibitor (Tocris). Cells were typically seeded at a density of 200,000 cells/cm^2 on Matrigel coated dishes. Switching from E8 to E6 triggered differentiations (i.e. d0). Neuroectoderm (NE) formation was generated by culturing the cells in E6 with 10 nM SB and 500 nM LDN until d12. Neural Crest (NC) was first treated with 10 nM SB, 600 nM CHIR and 1 ng/ml BMP4 from d0-d2. […] Lens placode was first treated with 10 nM SB and 5 ng/ml BMP4 from d0-d2. At d2, cells were maintained in 10 nM SB with 100 ng/ml FGF2 until d12. Trigeminal placode was first treated with 10 nM SB and 5 ng/ml BMP4 from d0-d2. At d2, CHIR was added to the SB and BMP4 until d4. Finally, non-neural ectoderm (NNE) was treated with 10 nM SB, 10 nM SU5402 and 20 ng/ml BMP4 until d12.
# hPSC [4] = assay: BMP dose response for TFAP2A, NNE and CP induction in E6 media; type: cell-based, human
# Description: (§1) All differentiations starting from E8 were dissociated into single cells using EDTA and replated at high density in E8 with the ROCK inhibitor (Tocris). Cells were typically seeded at a density of 200,000 cells/cm^2 on Matrigel coated dishes. Switching from E8 to E6 triggered differentiations (i.e. d0). Neuroectoderm (NE) formation was generated by culturing the cells in E6 with […] and 500 nM LDN until d12. Neural Crest (NC) was first treated with […], 600 nM CHIR and 1 ng/ml BMP4 from d0-d2. At d2, cells were maintained in […] with 1.5 uM CHIR until d12. Lens placode was first treated with […] and 5 ng/ml BMP4 from d0-d2. At d2, cells were maintained in […] with 100 ng/ml FGF2 until d12. Trigeminal placode was first treated with […] and 5 ng/ml BMP4 from d0-d2. At d2, CHIR was added to the SB and BMP4 until d4. Finally, non-neural ectoderm (NNE) was treated with 10 nM SB, 10 nM SU5402 and 20 ng/ml BMP4 until d12.
# hPSC [5] = assay: Neural crest induction, SOX10 positive cells; type: cell-based, human
# Description: as §1
# [6] = three-day pulse with SB431542, dose-response
molecule,measurement,setting,value
"Cc1c[nH]c(/C=C2\C(=O)Nc3ccccc32)c1CCC(=O)O [SU5402, 2-[(1,2-Dihydro-2-oxo-3H-indol-3-ylidene)methyl]-4-methyl-1H-pyrrole-3-pr-opanoic acid]",cell killing during differentiation,hPSCs,effectively killed the cells
"Somatocrinin: stimulant of hormone release (Accurate Chemical, 1 μg/ml) (YADAIFTNSYRKVLGQLSARKLLQDIMSRQQGESNQERGARARL; ends and bridges not checked; UniProt P01286 32-75, looked up)",GH release,[1],induced
same,ACTH release,[1]; listed as somatocrinin,did not trigger ACTH release
same,GH release,[1]; listed as somatocrinin,triggered robust increase in GH release
"Ghrelin: stimulant of hormone release (Tocris, 1 μM) (GSSFLSPEHQRVQQRKESKKPPAKLQPR; also: octanoylated, site not given here; UniProt Q9UBU3 24-51, looked up)",ACTH release,[1],did not trigger ACTH release
CNC1CCC(N(Cc2cccc(-c3ccncc3)c2)C(=O)c2sc3ccccc3c2Cl)CC1 (centres unmarked) [SAG],induction of anterior pituitary genes / lineage markers,[2],robust induction of anterior pituitary-lineage markers
same,cell death,[2]; small-molecule-based induction replacing SHH,increase in cell death
c1cnc2c(c1)ccc1cccnc12 [Phenantroline],percentage of cells expressing Six1 (hit validation),[3]; CP protocol,confirmed to reliably enhance the percentage of cells expressing Six1
same,Six1 positive cells,"[3]; CP protocol in the absence of FGF2, control 18%",69%
same,expression of Six1 versus control differentiations (primary screen hit),"[3]; LOPAC screen, CP protocol",increased expression of SIX1
same,fold increase of Six1 positive cells,"[3]; absence of FGF2, 69% versus 18%",~4 fold
same,"expression of other lineage markers such as Sox10, T, MyoD or Sox17",[3]; differentiation towards CP,without inducing the expression of other lineage markers
same,increase in Six1 expression over controls,[3]; differentiation towards CP,five-fold
"Urocortin: stimulant of hormone release (Tocris, 500 nM) (DNPSLSIDLTFHLLRTLLELARTQSQRERAEQNRIIFDSV; ends and bridges not checked; UniProt P55089 83-122, looked up)",ACTH release,[1],specifically induced
same,ACTH release,[1]; listed as urocortin,induced release of ACTH
c1ccc2c(Oc3nc(Nc4ccc(N5CCOCC5)cc4)c4ncn(C5CCCCC5)c4n3)cccc2c1 [purmorphamine],cell death,[2],increase in cell death
same,induction of anterior pituitary genes / lineage markers,[2],robust induction of anterior pituitary-lineage markers
"CRF: stimulant of hormone release (Tocris, 1 μM) (SEEPPISLDLTFHLLREVLEMARAEQLAQQAHSNRKLMEII; ends and bridges not checked; UniProt P06850 154-194, looked up)",ACTH release,[1],induced release of ACTH; also recorded: specifically induced
"BMP4: activator of BMP signaling (protein, UniProt P12644 293-408, looked up) Bone morphogenetic protein 4: SPKHHSQRARKKNKNCRRHSLYVDFSDVGWNDWIVAPPGYQAFYCHGDCPFPLADHLNSTNHAIVQTLVNSVNSSIPKACCVPTELSAISMLYLDEYDKVVLKNYQEMVVEGCGCR",BMP4 concentration optimal for CP induction,hPSC [4]; [6],around 5 ng/ml
same,SOX10 positive NC population generated,hPSC [5]; short pulse of BMP4 (1 ng/ml) with Wnt activation and SB431542,nearly homogenous SOX10 positive NC population
same,BMP4 concentration giving strong NC induction,hPSC [5]; [6],around 1 ng/ml
"BMP: BMP signaling activator used in E6 media, BMP4 per methods (protein, UniProt P12644 293-408, looked up) Bone morphogenetic protein 4: SPKHHSQRARKKNKNCRRHSLYVDFSDVGWNDWIVAPPGYQAFYCHGDCPFPLADHLNSTNHAIVQTLVNSVNSSIPKACCVPTELSAISMLYLDEYDKVVLKNYQEMVVEGCGCR",marker phenotype at high BMP (NNE),hPSC [4]; 20 ng/ml BMP,cells become TFAP2A positive and lack the expression of SOX10 and SIX1
same,TFAP2A expression,"hPSC [4]; within three days, with SB431542 in E6 media, dose dependent",rapidly upregulated
